The target in experiment [1] is T1, BAX (Homo sapiens, UniProt Q07812). Put plainly: Liposome membrane permeabilization / dye release assay (cBID activated BAX). The arrangement: made in house; host or cells: Escherichia coli BL21-AI. It counts as biochemical. The settings on record: 20 nM cBID and 100 nM BAX. The procedure:
The preparation of liposomes and dye-release assays were as previously described (Kale et al., 2014). The composition of liposomes, in molar %, to make a 1 mg/mL lipid film are as follows: 48% phosphatidylcholine, 28% phosphatidylethanolamine, 10% phosphatidylinositol, 10% dioleoyl phosphatidylserine, and 4% tetraoleoyl cardiolipin. Each lipid (dissolved in chloroform) was mixed in a glass test tube. Using a steady stream of nitrogen pointed inside the test tube, the tube is rotated to create a film of lipids on the glass. The tube is filled with nitrogen and covered with parafilm. The dried lipid film is then stored at −20° C. until needed. […]
The choice of ANTS/DPX or Terbium:DPA liposomes for dye release assays was dictated by the properties of those compounds being assayed for BAX inhibitory activity, that affected the fluorescence of ANTS or Terbium.
For ANTS/DPX dye release assays: ANTS (fluorophore; excitation 355 nm, emission 520 nm) and DPX (collisional quencher) are encapsulated in reconstituted liposomes. When the membrane is permeabilized, ANTS and DPX diffuse to the outside of the liposomes, decreasing the effective concentration DPX and therefore quenching by […] is decreased and ANTS fluorescence increases. […] The plate was then read a third time to assess the fluorescence of ANTS upon full dissociation of liposomes in each well (F100). […]

The target in experiment [2] is T1, BAX. Put plainly: 1H-15N HSQC NMR chemical shift perturbations with 15N-labelled BAX. It is filed as binding. Set-up: NMR experiments used full-length WT BAX at a concentration of 200 μM; made in house; host or cells: Escherichia coli BL21-AI (minimal media, 15N). Conditions: 200 uM BAX. The protocol: All experiments were performed using an independent sample for each measurement and were DMSO matched to account for environment changes due to the solvent. ^15N-labeled BAX was prepared as described above in 50 mM potassium phosphate pH 6, 50 mM NaCl, and 10% D2O. Samples were mixed before loading 40 μL in a 1.7 mm sample tube. […] NMR experiments used full-length WT BAX at a concentration of 200 μM. Experiments were conducted on a 600 MHz Bruker Avance magnet at 25° C. Chemical shift perturbations (CSP) were calculated in CCPNMRv3 using an automated analysis, where all peaks were matched to their extrema and calculated using the equation: […]
In the CSP equation above, α denotes the relative weighting of chemical shift changes of the ^15N relative to ^1H nuclei. ΔδHX and ΔδNx are the observed changes of the proton and nitrogen chemical shifts for residue x, respectively. As a note, all amino acid positions on the HSQC were manually inspected to use the extrema of the nearest identified peak. The absence of a bar in the CSP graph indicates no chemical shift, the presence of a proline, or a missing residue peak not used for analysis. Significance threshold was calculated as the average of chemical shifts across all residues plus the standard deviation. […]

Experiment [3] relates to diverse panel of 58 kinases. As to the kind of experiment: Kinase panel (Eurofins KinaseProfiler). It is filed as biochemical. Conditions: 1 uM. The procedure: For the kinase panel, % inhibition was measured using standardized assay conditions at the KinaseProfiler service (Eurofins Pharma Discovery Services). Compounds were sent for testing as dry powder.
The target in the next experiment is T2, V83W L120W BAX (Homo sapiens, UniProt Q07812, L120W/V83W).
T2 construct: made in house
Put plainly: ANTS/DPX liposome permeabilization with BAX mutant. It is filed as biochemical. Conditions: 100 nM V83W L120W BAX, 20 nM cBID, 20 uM compound. The procedure:
For ANTS/DPX dye release assays: ANTS (fluorophore; excitation 355 nm, emission 520 nm) and DPX (collisional quencher) are encapsulated in reconstituted liposomes. When the membrane is permeabilized, ANTS and DPX diffuse to the outside of the liposomes, decreasing the effective concentration DPX and therefore quenching by […] is decreased and ANTS fluorescence increases. ANTS/DPX liposomes (8 uL of mg/mL liposome preparation per 100 μL of reaction) were added to individual wells of multi-well plates (100 μL final volume for 96 well plates or (30 μL total volume for 384 well plates) in assay buffer (10 mM HEPES pH 7.2, 200 mM KCl, and 5 mM MgCl2). The background fluorescence of the liposomes and the compound dissolved in DMSO was measured for 10 minutes to ensure fluorescent signal stabilized (F0). Unless explicitly stated, 20 nM cBID and 100 nM BAX were added sequentially to each well and mixed thoroughly. The fluorescence intensity of ANTS was measured every minute for 2-3 hours until the signal stabilizes at a plateau (F). […] The plate was then read a third time to assess the fluorescence of ANTS upon full dissociation of liposomes in each well (F100). The percentage of dye release from the liposomes due to the action of cBID and BAX is calculated as: […]

T1 sequence (Q07812 whole entry): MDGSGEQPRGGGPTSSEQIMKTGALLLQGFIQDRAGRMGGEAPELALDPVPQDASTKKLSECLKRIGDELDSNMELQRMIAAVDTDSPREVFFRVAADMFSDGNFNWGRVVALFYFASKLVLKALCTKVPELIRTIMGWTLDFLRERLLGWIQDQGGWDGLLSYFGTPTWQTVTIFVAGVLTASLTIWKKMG
T2 sequence (Q07812 whole entry V83W/L120W): as the sequence (Q07812 whole entry) above, with V83W, L120W counted along it

For `COc1cc2ccnc(Nc3ccc(F)c(Cl)c3)c2cc1NC(=O)CCCN1CCCCC1` [Compound I-1, N-(1-((3-chloro-4-fluorophenyl)amino)-6-methoxyisoquinolin-7-yl)-4-(piperidin-1-yl)butanamide], at BAX [1], the “BAX inhibitory activity, cBID activated BAX mediated liposome permeabilization” value was “retained BAX inhibitory activity equivalent to comparative compound dacomitinib”. Besides, the “binding to BAX (chemical shift perturbations)” value on BAX [2] was “bind the cytosolic conformation of BAX”. Further, in experiment [3], the “activity across kinase panel (percent kinase inhibition)” value is “minimal activity”.
Turning to `COc1cc2ncnc(Nc3ccc(F)c(Cl)c3)c2cc1NC(=O)/C=C/CN1CCCCC1` [Dacomitinib, reference compound], the “inhibition of mutant BAX” value on V83W L120W BAX is “reduced inhibition”. Besides, the “BAX inhibitory activity, cBID activated BAX mediated liposome permeabilization” value at BAX [1] is reported as “identified in a screen for compounds that inhibit”.

(Values after US20250154140A1 (Sunnybrook Research Institute, priority 2022, published 2025).)
